Patent publication US10196393B2, “JAK inhibitors containing a 4-membered heterocyclic amide” (THERAVANCE BIOPHARMA R&D IP, LLC, priority 2017, dated 2019)

Assays:
JAK2 = JAK2 (Homo sapiens (Human), UniProt O60674); assay: Biochemical JAK kinase assay (LanthaScreen), JAK2; details: converted from pIC50 with Cheng-Prusoff equation
Experimental: (§1) Assay 1: Biochemical JAK Kinase Assays
(§2) A panel of four LanthaScreen JAK biochemical assays (JAK1, 2, 3 and Tyk2) were carried in a common kinase reaction buffer (50 mM HEPES, pH 7.5, 0.01% Brij-35, 10 mM MgCl2, and 1 mM EGTA). Recombinant GST-tagged JAK enzymes and a GFP-tagged STAT1 peptide substrate were obtained from Life Technologies.
(§3) Serially diluted compounds were pre-incubated with each of the four JAK enzymes and the substrate in white 384-well microplates (Corning) at ambient temperature for 1 h. ATP was subsequently added to initiate the kinase reactions in 10 μL total volume, with 1% DMSO. […] The plates were allowed to incubate at ambient temperature for 1 h before being read on the EnVision reader (Perkin Elmer).
(§4) For dose-response analysis, percent inhibition data were plotted vs. compound concentrations, and IC50 values were determined from a 4-parameter robust fit model with the Prism software (GraphPad Software). Results were expressed as pIC50 (negative logarithm of IC50) and subsequently converted to pKi (negative logarithm of dissociation constant, Ki) using the Cheng-Prusoff equation.

Tyk2 = Tyk2 (Homo sapiens (Human), UniProt P29597); assay: Biochemical JAK kinase assay (LanthaScreen), Tyk2; details: converted from pIC50 with Cheng-Prusoff equation
Chain of Tyk2 (P29597 whole entry): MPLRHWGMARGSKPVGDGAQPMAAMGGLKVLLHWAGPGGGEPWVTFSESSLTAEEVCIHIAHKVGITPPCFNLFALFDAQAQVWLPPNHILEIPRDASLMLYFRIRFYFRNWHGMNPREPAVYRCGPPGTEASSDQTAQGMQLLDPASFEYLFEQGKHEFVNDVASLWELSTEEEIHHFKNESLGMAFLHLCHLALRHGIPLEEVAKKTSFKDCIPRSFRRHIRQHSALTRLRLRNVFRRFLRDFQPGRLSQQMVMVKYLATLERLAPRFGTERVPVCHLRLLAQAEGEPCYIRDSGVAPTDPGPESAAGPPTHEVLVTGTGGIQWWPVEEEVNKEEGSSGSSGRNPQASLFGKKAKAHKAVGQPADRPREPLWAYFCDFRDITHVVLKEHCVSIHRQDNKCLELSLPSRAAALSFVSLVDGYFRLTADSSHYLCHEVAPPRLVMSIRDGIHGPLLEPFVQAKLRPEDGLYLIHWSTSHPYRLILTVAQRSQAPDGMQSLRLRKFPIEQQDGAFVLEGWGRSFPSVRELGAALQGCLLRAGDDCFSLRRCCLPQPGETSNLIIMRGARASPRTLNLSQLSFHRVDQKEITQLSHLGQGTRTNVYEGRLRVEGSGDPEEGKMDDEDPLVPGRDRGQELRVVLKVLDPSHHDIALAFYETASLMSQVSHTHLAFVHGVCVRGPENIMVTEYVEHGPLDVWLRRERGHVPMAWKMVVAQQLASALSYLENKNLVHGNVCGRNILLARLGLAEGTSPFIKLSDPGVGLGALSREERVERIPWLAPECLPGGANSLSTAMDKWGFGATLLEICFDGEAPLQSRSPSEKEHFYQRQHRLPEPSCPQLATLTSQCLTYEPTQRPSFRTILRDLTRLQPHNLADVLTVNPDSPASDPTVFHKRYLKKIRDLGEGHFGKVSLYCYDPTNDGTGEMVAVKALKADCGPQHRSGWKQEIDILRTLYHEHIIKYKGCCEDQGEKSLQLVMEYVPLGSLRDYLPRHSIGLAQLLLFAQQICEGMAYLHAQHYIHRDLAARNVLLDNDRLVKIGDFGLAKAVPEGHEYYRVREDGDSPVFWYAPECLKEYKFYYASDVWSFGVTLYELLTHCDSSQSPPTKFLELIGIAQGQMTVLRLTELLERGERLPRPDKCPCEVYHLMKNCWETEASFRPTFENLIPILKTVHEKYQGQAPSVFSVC
Experimental: as §1, §2, §3, §4

[1] = tested on: Alternaria alternata-induced eosinophilic inflammation of the lung (BALF eosinophils); assay: Murine model of Alternaria alternata-induced eosinophilic inflammation of the lung; type: in vivo; details: mouse, oropharyngeal aspiration 0.03-1.0 mg/mL, BALF 48 h after challenge; maximum statistically significant inhibition
From the text: Assay 5: Murine Model of Alternaria alternata-Induced Eosinophilic Inflammation of the Lung
Airway eosinophilia is a hallmark of human asthma. Alternaria alternata is a fungal aeroallergen that can exacerbate asthma in humans and induces eosinophilic inflammation in the lungs of mice (Havaux et al. Clin Exp Immunol. 2005 February; 139(2):179-88).
Seven- to nine-week old male C57 mice from Taconic were used in the study. On the day of study, animals were lightly anesthetized with isoflurane and administered either vehicle or test compound (0.03-1.0 mg/mL, 50 μL total volume over several breaths) via oropharyngeal aspiration. Animals were placed in lateral recumbency post dose and monitored for full recovery from anesthesia before being returned to their home cage. One hour later, animals were once again briefly anesthetized and challenged with either vehicle or alternaria extract (200 ug total extract delivered, 50 μL total volume) via oropharyngeal aspiration before being monitored for recovery from anesthesia and returned to their home cage. Forty-eight hours after alternaria administration, bronchoalveolar lavage fluid (BALF) was collected and eosinophils were counted in the BALF using the Advia 120 Hematology System (Siemens). […]

[2] = tested on: IL-4 stimulated STAT6 phosphorylation in CD3+ T cells; assay: Cellular JAK potency assay: inhibition of IL-4 stimulated pSTAT6 in CD3+ T cells; type: cell-based; details: T-cell; CD3+ T cells in human PBMCs; read-out: pIC50, inhibition of IL-4 stimulated pSTAT6 (converted)
Experimental: Assay 10: Cellular JAK Potency Assay: Inhibition of IL-4 Stimulated pSTAT6 in CD3+ T Cells
The potency of the test compound for inhibition of interleukin-4 (IL-4) stimulated STAT6 phosphorylation was measured in CD3-positive (CD3+) T cells in human peripheral blood mononuclear cells (PBMCs) isolated from human whole blood (Stanford Blood Center) using flow cytometry. Because IL-4 signals through JAK, this assay provides a measure of JAK cellular potency.
CD3+ T cells were identified using a […] (PE) conjugated anti-CD3 antibody (Clone UCHT1, BD Biosciences), while an Alexa Fluor 647 conjugated anti-pSTAT6 antibody (pY641, Clone 18/P, BD Biosciences) was used to detect STAT6 phosphorylation.
Human peripheral blood mononuclear cells (PBMC) were isolated from human whole blood of healthy donors as in Assays 8 and 9. […] After incubation, cells were washed twice in FACS buffer before being analyzed using a LSRII flow cytometer (BD Biosciences).
To determine the inhibitory potency of the test compound in response to IL-4, the median fluorescent intensity (MFI) of pSTAT6 was measured in CD3+ T cells. IC50 values were determined from analysis of the inhibition curves of MFI vs compound concentration. Data are expressed as pIC50 (negative decadic logarithm IC50).

Chain of JAK2 (O60674 whole entry): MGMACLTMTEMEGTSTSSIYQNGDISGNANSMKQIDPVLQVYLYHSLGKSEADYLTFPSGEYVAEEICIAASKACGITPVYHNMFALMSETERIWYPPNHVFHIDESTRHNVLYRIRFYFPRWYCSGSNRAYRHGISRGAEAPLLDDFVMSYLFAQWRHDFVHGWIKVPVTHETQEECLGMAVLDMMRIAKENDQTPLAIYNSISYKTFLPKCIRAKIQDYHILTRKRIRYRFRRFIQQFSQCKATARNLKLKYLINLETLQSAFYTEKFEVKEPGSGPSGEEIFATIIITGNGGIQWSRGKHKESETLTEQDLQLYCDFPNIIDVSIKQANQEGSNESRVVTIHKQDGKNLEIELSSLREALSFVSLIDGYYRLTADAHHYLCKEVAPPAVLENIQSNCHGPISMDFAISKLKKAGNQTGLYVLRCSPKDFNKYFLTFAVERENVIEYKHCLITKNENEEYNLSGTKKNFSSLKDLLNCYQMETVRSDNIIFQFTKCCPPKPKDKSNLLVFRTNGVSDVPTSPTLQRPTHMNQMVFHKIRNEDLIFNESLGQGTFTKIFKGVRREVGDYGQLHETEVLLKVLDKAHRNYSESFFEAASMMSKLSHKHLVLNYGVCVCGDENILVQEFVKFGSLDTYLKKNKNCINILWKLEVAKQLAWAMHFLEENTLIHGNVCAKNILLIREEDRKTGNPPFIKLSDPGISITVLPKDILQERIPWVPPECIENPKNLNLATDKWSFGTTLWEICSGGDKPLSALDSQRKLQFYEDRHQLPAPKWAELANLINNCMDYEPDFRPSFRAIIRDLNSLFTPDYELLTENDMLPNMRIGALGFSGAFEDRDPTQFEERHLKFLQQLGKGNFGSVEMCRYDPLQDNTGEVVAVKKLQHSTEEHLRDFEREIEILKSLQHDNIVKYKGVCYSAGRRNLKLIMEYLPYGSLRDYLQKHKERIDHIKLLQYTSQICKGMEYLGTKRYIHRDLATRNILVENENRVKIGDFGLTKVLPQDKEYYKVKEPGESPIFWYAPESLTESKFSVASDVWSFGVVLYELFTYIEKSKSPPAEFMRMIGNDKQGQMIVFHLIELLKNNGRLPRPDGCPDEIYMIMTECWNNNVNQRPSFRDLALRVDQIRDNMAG

CCc1cc(O)c(F)cc1-c1ccc2c(-c3nc4c([nH]3)CN(C(C)C)[C@H](C(=O)N3CC(N(C)C)C3)C4)n[nH]c2c1 [Example 2, (S)-(3-(dimethylamino)azetidin-1-yl)(2-(6-(2-ethyl-5-fluoro-4-hydroxyphenyl)-1H-indazol-3-yl)-5-isopropyl-4,5,6,7-tetrahydro-3H-imidazo[4,5-c]pyridin-6-yl)methanone]
Ki (JAK2): 0.02 nM | Ki (Tyk2): 0.32 nM | Percent Inhibition of Alternaria-induced BALF Eosinophils [1]: 74% | IC50 [2]: 12.6 nM
